By IC50 is commonly meant the concentration that inhibits the measured activity by half. A high value points to a need for much substance.

For one compound, IC50 results are on record in PMC11221864, “FRAX486, a PAK inhibitor, overcomes ABCB1-mediated multidrug resistance in breast cancer cells” (Brazilian Journal of Medical and Biological Research, 2024).

For the test, the target named is T1, ABCB1 (Homo sapiens, UniProt P08183).
T1 construct: ABCB1 in membrane vesicles from High Five insect cells
Kind of test: vanadate-sensitive ATPase assay in membrane vesicles. Format: biochemical.

T1 sequence (P08183 whole entry): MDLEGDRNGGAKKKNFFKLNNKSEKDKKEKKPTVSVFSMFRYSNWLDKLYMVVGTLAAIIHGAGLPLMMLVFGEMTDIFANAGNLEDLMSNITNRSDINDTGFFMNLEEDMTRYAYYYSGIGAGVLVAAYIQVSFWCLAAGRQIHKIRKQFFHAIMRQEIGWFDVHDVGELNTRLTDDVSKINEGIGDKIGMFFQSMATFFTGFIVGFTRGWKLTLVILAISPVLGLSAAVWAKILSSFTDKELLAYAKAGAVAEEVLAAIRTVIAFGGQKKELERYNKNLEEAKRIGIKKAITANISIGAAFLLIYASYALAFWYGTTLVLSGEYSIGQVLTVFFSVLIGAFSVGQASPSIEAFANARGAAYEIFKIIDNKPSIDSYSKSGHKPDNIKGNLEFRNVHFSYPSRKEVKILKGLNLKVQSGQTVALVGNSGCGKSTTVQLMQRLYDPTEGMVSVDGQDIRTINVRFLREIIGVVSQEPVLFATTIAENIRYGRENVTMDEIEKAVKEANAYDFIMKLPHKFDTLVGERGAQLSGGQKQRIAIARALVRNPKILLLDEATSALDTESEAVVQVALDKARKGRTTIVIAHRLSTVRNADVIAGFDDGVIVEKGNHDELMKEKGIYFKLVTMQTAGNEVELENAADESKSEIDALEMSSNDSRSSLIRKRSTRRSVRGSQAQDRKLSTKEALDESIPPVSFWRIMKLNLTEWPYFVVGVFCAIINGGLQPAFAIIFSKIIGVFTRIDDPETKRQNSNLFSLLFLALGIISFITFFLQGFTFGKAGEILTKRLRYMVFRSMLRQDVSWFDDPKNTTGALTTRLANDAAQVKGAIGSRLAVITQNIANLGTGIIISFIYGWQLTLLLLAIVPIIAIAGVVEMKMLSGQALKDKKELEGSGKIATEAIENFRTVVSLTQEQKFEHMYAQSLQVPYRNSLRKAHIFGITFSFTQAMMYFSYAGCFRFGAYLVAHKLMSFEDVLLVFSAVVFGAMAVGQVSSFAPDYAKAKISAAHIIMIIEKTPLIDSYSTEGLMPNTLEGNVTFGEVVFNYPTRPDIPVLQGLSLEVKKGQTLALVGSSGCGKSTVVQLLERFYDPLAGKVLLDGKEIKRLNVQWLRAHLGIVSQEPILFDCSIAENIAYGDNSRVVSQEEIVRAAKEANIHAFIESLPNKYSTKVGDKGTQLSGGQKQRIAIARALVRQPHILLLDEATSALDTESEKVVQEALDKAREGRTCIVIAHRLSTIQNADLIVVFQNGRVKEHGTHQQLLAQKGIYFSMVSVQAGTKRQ

Compound `CCn1c(=O)c(-c2ccc(Cl)cc2Cl)cc2cnc(Nc3ccc(N4CCNCC4)c(F)c3)nc21` [FRAX486] registered a 50% inhibitory concentration (IC50) of 20 nM.
